According to ChEMBL document CHEMBL2331089, “Characterization, bioinformatic analysis and dithiocarbamate inhibition studies of two new α-carbonic anhydrases, CAH1 and CAH2, from the fruit fly Drosophila melanogaster” (Bioorg Med Chem, 2013):
Where a name gives a salt, the structure may show the parent alone.

Experiments:
Carbonic anhydrase 1 = target: T1, Carbonic anhydrase 1 (Drosophila melanogaster, UniProt Q9V396); assay: Inhibition of Drosophila melanogaster recombinant carbonic anhydrase-1 expressed in Escherichia coli BL21 (DE3) preincubated for 15 mins by CO2 hydration stopped-flow assay
T1 sequence (Q9V396 whole entry): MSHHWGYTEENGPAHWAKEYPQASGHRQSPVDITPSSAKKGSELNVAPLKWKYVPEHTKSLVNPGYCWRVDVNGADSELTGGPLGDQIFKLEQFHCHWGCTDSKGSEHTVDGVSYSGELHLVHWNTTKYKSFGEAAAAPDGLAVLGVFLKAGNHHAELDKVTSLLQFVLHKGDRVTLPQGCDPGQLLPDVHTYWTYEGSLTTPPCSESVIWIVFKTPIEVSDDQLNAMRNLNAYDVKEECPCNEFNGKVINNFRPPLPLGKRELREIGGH

[1] = target: T2, Carbonic anhydrase 2, isoform A (Drosophila melanogaster, UniProt Q9VTU8); assay: Inhibition of Drosophila melanogaster recombinant carbonic anhydrase-2 expressed in Escherichia coli BL21 (DE3) preincubated for 15 mins by CO2 hydration stopped-flow assay
T2 sequence (Q9VTU8 whole entry): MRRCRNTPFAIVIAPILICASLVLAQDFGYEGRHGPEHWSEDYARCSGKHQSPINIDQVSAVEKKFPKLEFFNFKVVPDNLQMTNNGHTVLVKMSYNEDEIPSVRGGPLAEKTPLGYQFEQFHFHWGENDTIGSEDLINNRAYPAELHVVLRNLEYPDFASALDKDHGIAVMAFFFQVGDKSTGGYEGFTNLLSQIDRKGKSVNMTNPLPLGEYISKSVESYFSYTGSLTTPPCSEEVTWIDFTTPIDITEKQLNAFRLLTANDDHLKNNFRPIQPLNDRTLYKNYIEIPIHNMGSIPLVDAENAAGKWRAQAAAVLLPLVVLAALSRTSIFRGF

[2] = Inhibition of Drosophila melanogaster recombinant beat carbonic anhydrase expressed in Escherichia coli BL21 (DE3) preincubated for 15 mins by CO2 hydration stopped-flow assay

CN1CCN(NC(=S)S)CC1
Ki (Carbonic anhydrase 1): 0.9 nM | Ki [1]: 13.8 nM

CC(=O)Nc1nnc(S(N)(=O)=O)s1 [ACETAZOLAMIDE]
Ki [2]: 49 nM

S=C(S)NN1CCOCC1 [POTASSIUM MORPHOLINOCARBAMODITHIOATE]
Ki (Carbonic anhydrase 1): 13.1 nM | Ki [1]: 20.7 nM

CCC(C)NC(=S)S (racemic)
Ki (Carbonic anhydrase 1): 325 nM | Ki [1]: 0.9 nM

CN(Cc1ccccc1)C(=S)S [SODIUM BENZYL(METHYL)CARBAMODITHIOATE]
Ki (Carbonic anhydrase 1): 50.2 nM | Ki [1]: 12.4 nM

S=C(S)N1CCCC1
Ki (Carbonic anhydrase 1): 135 nM | Ki [1]: 4.7 nM

O=C(O)CNC(=S)S
Ki (Carbonic anhydrase 1): 123 nM | Ki [1]: 76.5 nM

S=C(S)Nc1cccs1
Ki (Carbonic anhydrase 1): 0.5 nM | Ki [1]: 3.9 nM

CC(C)CN(CC(C)C)C(=S)S [DIISOBUTYLCARBODITHIOIC ACID SODIUM SALT]
Ki (Carbonic anhydrase 1): 20.2 nM | Ki [1]: 0.9 nM

OCCN(CCO)C(=S)S
Ki (Carbonic anhydrase 1): 3.2 nM | Ki [1]: 134 nM

CCCN(CCC)C(=S)S [DIPROPYLCARBAMODITHIOATE SODIUM SALT]
Ki (Carbonic anhydrase 1): 23.4 nM | Ki [1]: 3.9 nM

CCCCN(CCCC)C(=S)S [DIBUTYLCARBAMODITHIOATE SODIUM SALT]
Ki (Carbonic anhydrase 1): 17.1 nM | Ki [1]: 0.5 nM

S=C(S)N1CCN(C(=S)S)CC1 [PIPERAZINECARBAMODITHIOATE DISODIUM SALT]
Ki (Carbonic anhydrase 1): 0.9 nM | Ki [1]: 21.6 nM

CCN(CC)C(=S)S [DITIOCARB SODIUM]
Ki (Carbonic anhydrase 1): 2350 nM | Ki [1]: 654 nM

CCCCN(CC)C(=S)S [ETHYLBUTYLCARBAMODITHIOATE SODIUM SALT]
Ki (Carbonic anhydrase 1): 10.5 nM | Ki [1]: 21.9 nM

S=C(S)NCCN1CCOCC1
Ki (Carbonic anhydrase 1): 12.1 nM | Ki [1]: 10.4 nM

S=C(S)Nc1ccccc1 [TRIETHYLAMMONIUM PHENYLCARBAMODITHIOATE]
Ki (Carbonic anhydrase 1): 21.4 nM | Ki [1]: 33.9 nM

S=C(S)NCc1ccccc1 [SODIUM BENZYLCARBAMODITHIOATE]
Ki (Carbonic anhydrase 1): 0.8 nM | Ki [1]: 213 nM

NCCCn1ccnc1.S=C(S)NCCCn1ccnc1
Ki (Carbonic anhydrase 1): 0.9 nM | Ki [1]: 24.1 nM

S=C(S)NCCN1CCCCC1
Ki (Carbonic anhydrase 1): 57.1 nM | Ki [1]: 26.7 nM

CN(C(=S)S)c1ccccc1 [SODIUM METHYL(PHENYL)CARBAMODITHIOATE]
Ki (Carbonic anhydrase 1): 67.1 nM | Ki [1]: 5.9 nM

CN(C)C(=S)S [SODIUM DIMETHYLCARBAMODITHIOATE]
Ki (Carbonic anhydrase 1): 3460 nM | Ki [1]: 769 nM

O=C(O)[C@@H]1CCCN1C(=S)S
Ki (Carbonic anhydrase 1): 1.4 nM | Ki [1]: 13.6 nM

S=C(S)N1CCOCC1 [MORPHOLINECARBAMODITHIOATE SODIUM SALT]
Ki (Carbonic anhydrase 1): 13.8 nM | Ki [1]: 0.8 nM

CCCCCCN(CCCCCC)C(=S)S [DIHEXYLCARBAMODITHIOATE SODIUM SALT]
Ki (Carbonic anhydrase 1): 1.4 nM | Ki [1]: 3.8 nM

S=C(S)NCCN(CCNC(=S)S)CNC(=S)S
Ki (Carbonic anhydrase 1): 134 nM | Ki [1]: 1.5 nM

S=C(S)NCc1ccncc1
Ki (Carbonic anhydrase 1): 35.1 nM | Ki [1]: 58.8 nM
